Reference: patent US20240000946A1, “CARBONIC ANHYDRASE INHIBITORS SYNTHESIZED ON INTERCONNECTING LINKER CHAINS” (VILNIUS UNIVERSITY, priority 2020, published 2024)
pIC50, pKd: −log10 of the molar value.

Legend:
human recombinant CA II = biological target: T1, human recombinant CA II (Homo sapiens, UniProt P00918); experiment: Fluorescent thermal shift assay (FTSA), CA II; format: binding; details: 37° C., pH 7.0
T1 construct: recombinant human carbonic anhydrase catalytic domains using the fluorescent thermal shift assay; made in house
Protocol: (§1) The protein solution in the absence and presence of various compound concentrations was heated from 25 to 99° C. (heating rate 1° C./min). The melting temperature Tm shift was determined by following the fluorescence of 8-anilino-1-naphthalene sulfonate (ANS). The samples consisted of 5 μM protein (except 10 μM for CA IV), different concentrations of compound (usually 0-200 μM), 50 μM ANS and 50 mM sodium phosphate buffer (at pH 7.0) containing 100 mM sodium chloride and 2% (v/v) of DMSO. Compound binding constant was obtained from protein Tm as a function of the added ligand concentration. Data analysis was performed, and the curves were fit so that the binding constant is determined for 37° C.

human recombinant CA XIV = biological target: T2, human recombinant CA XIV (Homo sapiens, UniProt Q9ULX7); experiment: Fluorescent thermal shift assay (FTSA), CA XIV; format: binding; details: 37° C., pH 7.0
T2 construct: recombinant human carbonic anhydrase catalytic domains using the fluorescent thermal shift assay; made in house
Protocol: as §1

human recombinant CA IX = biological target: T3, human recombinant CA IX (Homo sapiens, UniProt Q16790); experiment: Fluorescent thermal shift assay (FTSA), CA IX; format: binding; details: 37° C., pH 7.0
T3 construct: recombinant human carbonic anhydrase catalytic domains using the fluorescent thermal shift assay; made in house
Protocol: as §1

human recombinant CA III = biological target: T4, human recombinant CA III (Homo sapiens, UniProt P07451); experiment: Fluorescent thermal shift assay (FTSA), CA III; format: binding; details: 37° C., pH 7.0
T4 construct: recombinant human carbonic anhydrase catalytic domains using the fluorescent thermal shift assay; made in house
Protocol: as §1

human recombinant CA XII = biological target: T5, human recombinant CA XII (Homo sapiens, UniProt O43570); experiment: Fluorescent thermal shift assay (FTSA), CA XII; format: binding; details: 37° C., pH 7.0
T5 construct: recombinant human carbonic anhydrase catalytic domains using the fluorescent thermal shift assay; made in house
Protocol: as §1

human recombinant CA VI = biological target: T6, human recombinant CA VI (Homo sapiens, UniProt P23280); experiment: Fluorescent thermal shift assay (FTSA), CA VI; format: binding; details: 37° C., pH 7.0
T6 construct: recombinant human carbonic anhydrase catalytic domains using the fluorescent thermal shift assay; made in house
Protocol: as §1

human recombinant CA I = biological target: T7, human recombinant CA I (Homo sapiens, UniProt P00915); experiment: Fluorescent thermal shift assay (FTSA), CA I; format: binding; details: 37° C., pH 7.0
T7 construct: recombinant human carbonic anhydrase catalytic domains using the fluorescent thermal shift assay; made in house
Protocol: as §1

human recombinant CA VB = biological target: T8, human recombinant CA VB (Homo sapiens, UniProt Q9Y2D0); experiment: Fluorescent thermal shift assay (FTSA), CA VB; format: binding; details: 37° C., pH 7.0
T8 construct: recombinant human carbonic anhydrase catalytic domains using the fluorescent thermal shift assay; made in house
Protocol: as §1

human recombinant CA IV = biological target: T9, human recombinant CA IV (Homo sapiens, UniProt P22748); experiment: Fluorescent thermal shift assay (FTSA), CA IV; format: binding; details: 37° C., pH 7.0
T9 construct: recombinant human carbonic anhydrase catalytic domains using the fluorescent thermal shift assay; made in house
Protocol: as §1

human recombinant CA VA = biological target: T10, human recombinant CA VA (Homo sapiens, UniProt P35218); experiment: Fluorescent thermal shift assay (FTSA), CA VA; format: binding; details: 37° C., pH 7.0
T10 construct: recombinant human carbonic anhydrase catalytic domains using the fluorescent thermal shift assay; made in house
Protocol: as §1

[1] = biological target: T11, human recombinant CA XIII (Homo sapiens, UniProt Q8N1Q1); experiment: Fluorescent thermal shift assay (FTSA), CA XIII; format: binding; details: 37° C., pH 7.0
T11 construct: recombinant human carbonic anhydrase catalytic domains using the fluorescent thermal shift assay; made in house
Protocol: as §1

human recombinant CA VII = biological target: T12, human recombinant CA VII (Homo sapiens, UniProt P43166); experiment: Fluorescent thermal shift assay (FTSA), CA VII; format: binding; details: 37° C., pH 7.0
T12 construct: recombinant human carbonic anhydrase catalytic domains using the fluorescent thermal shift assay; made in house
Protocol: as §1

HeLa cancer cell culture = experiment: Acidification of extracellular medium by hypoxic HeLa cell culture; format: cell-based, human; details: 1 μM compound
Protocol: FIG. 6. HeLa cancer cell culture grown for 48 hours under hypoxic (1% O2) conditions caused acidification of extracellular medium as visualized by pH drop from initial pH 7.74 (shown as a dashed bold line) to pH 6.35.

carbonic anhydrase IX = biological target: T13, carbonic anhydrase IX (Homo sapiens, UniProt Q16790); experiment: Inhibition of CA enzymatic (CO2 hydratase) activity; format: biochemical
T13 construct: made in house
Protocol: The inhibition of hydratase activity of carbonic anhydrase I, II, and IX was performed using Applied Photophysics SX.18 MV-R instrument at 24° C. Theaturated substrate solution was prepared by bubbling carbon dioxide gas into Milly-Q water for 1 hour at room temperature. Phenol red was used as a pH indicator to follow the absorbance (A-557 nm) while CA acidified the medium. […] Raw curves were fitted using a single exponential model, and the dissociation constants were determined using the Morrison equation: […]
Where [CA] is a total added concentration of active CA, [I]—total added inhibitor concentration, and Kd is inhibitor binding affinity.

T10 sequence (P35218 39-296 limits assumed): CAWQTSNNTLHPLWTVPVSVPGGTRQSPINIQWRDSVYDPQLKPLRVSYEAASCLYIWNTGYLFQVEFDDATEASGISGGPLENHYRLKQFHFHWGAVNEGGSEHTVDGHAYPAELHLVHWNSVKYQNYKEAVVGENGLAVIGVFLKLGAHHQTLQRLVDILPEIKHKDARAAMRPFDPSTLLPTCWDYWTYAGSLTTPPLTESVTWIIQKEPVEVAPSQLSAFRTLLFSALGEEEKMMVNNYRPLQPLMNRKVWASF
T4 sequence (P07451 3-259 limits assumed): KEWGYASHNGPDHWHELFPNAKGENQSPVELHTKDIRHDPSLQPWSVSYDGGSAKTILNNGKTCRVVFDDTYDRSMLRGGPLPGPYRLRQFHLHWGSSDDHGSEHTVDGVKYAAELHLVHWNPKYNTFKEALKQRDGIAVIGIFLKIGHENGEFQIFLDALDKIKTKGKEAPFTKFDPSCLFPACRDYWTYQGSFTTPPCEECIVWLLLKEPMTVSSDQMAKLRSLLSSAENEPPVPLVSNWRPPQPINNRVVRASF
T2 sequence (Q9ULX7 20-278 limits assumed): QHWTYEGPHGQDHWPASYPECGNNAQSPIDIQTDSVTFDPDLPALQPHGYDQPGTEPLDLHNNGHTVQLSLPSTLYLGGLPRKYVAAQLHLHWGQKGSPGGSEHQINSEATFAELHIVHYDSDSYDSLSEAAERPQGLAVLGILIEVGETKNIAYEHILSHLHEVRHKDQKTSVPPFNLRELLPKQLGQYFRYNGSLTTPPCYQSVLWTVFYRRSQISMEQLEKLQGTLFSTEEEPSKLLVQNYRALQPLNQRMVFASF
T5 sequence (O43570 30-289 limits assumed): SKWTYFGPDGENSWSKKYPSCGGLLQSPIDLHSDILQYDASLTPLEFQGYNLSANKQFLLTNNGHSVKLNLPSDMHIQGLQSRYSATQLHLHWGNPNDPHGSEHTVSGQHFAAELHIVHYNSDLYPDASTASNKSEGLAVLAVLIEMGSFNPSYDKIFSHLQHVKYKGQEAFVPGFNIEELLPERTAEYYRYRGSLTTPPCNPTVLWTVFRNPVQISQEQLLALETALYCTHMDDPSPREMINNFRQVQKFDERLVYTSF
T12 sequence (P43166 5-262 limits assumed): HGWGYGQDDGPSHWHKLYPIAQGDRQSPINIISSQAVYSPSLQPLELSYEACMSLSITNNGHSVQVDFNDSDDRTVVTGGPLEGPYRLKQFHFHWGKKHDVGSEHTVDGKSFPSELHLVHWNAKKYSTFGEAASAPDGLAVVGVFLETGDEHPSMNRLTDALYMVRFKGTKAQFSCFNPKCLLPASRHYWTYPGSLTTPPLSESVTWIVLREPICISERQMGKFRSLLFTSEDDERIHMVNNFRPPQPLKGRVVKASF
T7 sequence (P00915 4-261 limits assumed): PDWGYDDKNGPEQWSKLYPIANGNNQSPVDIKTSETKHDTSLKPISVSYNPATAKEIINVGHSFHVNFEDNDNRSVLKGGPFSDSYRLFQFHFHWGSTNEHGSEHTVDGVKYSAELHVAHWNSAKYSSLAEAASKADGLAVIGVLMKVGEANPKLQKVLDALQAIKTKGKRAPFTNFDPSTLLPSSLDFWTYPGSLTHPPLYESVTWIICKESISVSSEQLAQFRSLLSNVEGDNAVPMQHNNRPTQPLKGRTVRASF
T8 sequence (Q9Y2D0 37-296 limits assumed): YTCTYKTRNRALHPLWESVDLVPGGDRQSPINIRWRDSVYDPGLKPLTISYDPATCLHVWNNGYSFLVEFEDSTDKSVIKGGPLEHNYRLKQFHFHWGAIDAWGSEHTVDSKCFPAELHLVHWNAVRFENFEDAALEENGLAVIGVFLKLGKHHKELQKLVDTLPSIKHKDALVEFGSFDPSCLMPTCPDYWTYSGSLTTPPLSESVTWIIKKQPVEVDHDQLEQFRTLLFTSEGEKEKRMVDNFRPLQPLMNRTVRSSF
T11 sequence (Q8N1Q1 4-261 limits assumed): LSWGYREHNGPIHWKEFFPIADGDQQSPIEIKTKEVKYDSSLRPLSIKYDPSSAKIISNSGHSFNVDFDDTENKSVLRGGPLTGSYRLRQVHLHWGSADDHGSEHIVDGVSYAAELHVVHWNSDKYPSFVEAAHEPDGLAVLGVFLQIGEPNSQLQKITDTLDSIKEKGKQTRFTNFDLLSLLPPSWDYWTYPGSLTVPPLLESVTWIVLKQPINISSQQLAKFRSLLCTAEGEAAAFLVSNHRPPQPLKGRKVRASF
T9 sequence (P22748 21-285 limits assumed): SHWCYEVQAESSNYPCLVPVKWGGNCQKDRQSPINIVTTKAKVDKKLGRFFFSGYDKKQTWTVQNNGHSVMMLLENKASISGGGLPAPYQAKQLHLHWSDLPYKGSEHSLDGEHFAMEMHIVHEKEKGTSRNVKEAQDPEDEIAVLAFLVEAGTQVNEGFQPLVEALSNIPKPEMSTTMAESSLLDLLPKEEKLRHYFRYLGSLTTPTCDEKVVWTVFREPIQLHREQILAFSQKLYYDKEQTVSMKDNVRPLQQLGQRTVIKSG
T6 sequence (P23280 21-278 limits assumed): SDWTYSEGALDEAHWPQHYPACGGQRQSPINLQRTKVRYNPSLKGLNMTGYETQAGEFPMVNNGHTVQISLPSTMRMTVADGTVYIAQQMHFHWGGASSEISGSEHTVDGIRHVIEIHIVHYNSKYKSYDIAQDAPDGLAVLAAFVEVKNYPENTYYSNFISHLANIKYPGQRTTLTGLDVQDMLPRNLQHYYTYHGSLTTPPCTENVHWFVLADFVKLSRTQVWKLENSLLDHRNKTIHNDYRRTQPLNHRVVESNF

NS(=O)(=O)c1c(F)c(F)c(S(=O)(=O)CCNC(=O)CCOCCOCCOCCOCCOCCOCCOCCOCCOCCOCCOCCOCCNC(=O)CCCCC2SCC3NC(=O)NC32)c(NC2CCCCCCC2)c1F (centres unmarked) [AZ19-1, N-[2-[2-[2-[2-[2-[2-[2-[2-[2-[2-[2-[2-[3-[2-[2-(cyclooctylamino)-3,5,6-trifluoro-4-sulfamoyl-phenyl]sulfonylmethylamine]-3-oxo-propoxy]ethoxy]ethoxy]ethoxy]ethoxy]ethoxy]ethoxy]ethoxy]ethoxy]ethoxy]ethoxy]ethoxy]ethyl]-5-(2-oxo-1,3,3a,4,6,6a-hexahydrothieno[3,4-d]imidazol-4-yl)pentanamide]
pKd (human recombinant CA II): 6.35 | pKd (human recombinant CA XIV): 7.57 | pKd (human recombinant CA IX): 10.00 | pKd (human recombinant CA III): ≤ 3.70 | pKd (human recombinant CA XII): 7.30 | pKd (human recombinant CA VI): 6.01 | pKd (human recombinant CA I): 5.00 | pKd (human recombinant CA VB): 7.08 | pKd (human recombinant CA IV): 6.00 | pKd (human recombinant CA VA): 5.15 | pKd [1]: 7.30 | pKd (human recombinant CA VII): 6.82

NS(=O)(=O)c1c(F)c(F)c(S(=O)(=O)CCNC(=O)CCOCCOCCOCCOCCOCCOCCOCCOCCOCCOCCOCCOCCOCCC(=O)O)c(NC2CCCCCCC2)c1F [AZ19-3-1, 3-[2-[2-[2-[2-[2-[2-[2-[2-[2-[2-[2-[2-[3-[2-[2-(cyclooctylamino)-3,5,6-trifluoro-4-sulfamoyl-phenyl]sulfonylethylamino]-3-oxo-propoxy]ethoxy]ethoxy]ethoxy]ethoxy]ethoxy]ethoxy]ethoxy]ethoxy]ethoxy]ethoxy]ethoxy]ethoxy]propanoic acid]
pKd (human recombinant CA II): 6.60 | pKd (human recombinant CA XIV): 8.00 | pKd (human recombinant CA IX): 10.30 | pKd (human recombinant CA III): ≤ 3.70 | pKd (human recombinant CA XII): 7.70 | pKd (human recombinant CA VI): 6.30 | pKd (human recombinant CA I): 5.00 | pKd (human recombinant CA VB): 7.15 | pKd (human recombinant CA IV): 6.00 | pKd (human recombinant CA VA): 5.00 | pKd [1]: 7.70 | pKd (human recombinant CA VII): 7.30

NS(=O)(=O)c1c(F)c(F)c(S(=O)(=O)CCNC(=O)CCOCCOCCOCCOCCOCCOCCOCCOCCOCCOCCOCCOCCOCCC(=O)NCCS(=O)(=O)c2c(F)c(F)c(S(N)(=O)=O)c(F)c2NC2CCCCCCC2)c(NC2CCCCCCC2)c1F [AZ19-3-2, N-[2-[2-(cyclooctylamino)-3,5,6-trifluoro-4-sulfamoyl-phenyl]sulfonylethyl]-3-[2-[2-[2-[2-[2-[2-[2-[2-[2-[2-[2-[2-[3-[2-[2-(cyclooctylamino)-3,5,6-trifluoro-4-sulfamoyl-phenyl]sulfonylethylamino]-3-oxo-propoxy]ethoxy]ethoxy]ethoxy]ethoxy]ethoxy]ethoxy]ethoxy]ethoxy]ethoxy]ethoxy]ethoxy]ethoxy]propanamide]
pKd (human recombinant CA II): 7.00 | pKd (human recombinant CA XIV): 8.08 | pKd (human recombinant CA IX): 10.82 | pKd (human recombinant CA III): ≤ 3.70 | pKd (human recombinant CA XII): 7.70 | Inhibition of acidification at 1 μM (HeLa cancer cell culture): mostly inhibited | pKd (human recombinant CA I): 5.48 | pKd (human recombinant CA VB): 7.15 | pKd (human recombinant CA IV): 6.60 | pIC50 (carbonic anhydrase IX; 50 nM enzyme CA IX, compound titrates the enzyme, read-out: Compound concentration at 50% remaining activity of CA IX): ~8.00 | pKd (carbonic anhydrase IX; read-out: Real affinity for CA IX as bounded by enzymatic inhibition): > 8.00 | pKd (human recombinant CA VA): 5.52 | pKd [1]: 8.70 | pKd (human recombinant CA VII): 6.48
